# Assay results: BindingDB's records for doi:10.1016/j.ejmech.2009.09.025 (2010)
# Biological target: Glutamate receptor ionotropic, kainate 1 (GluK1/GRIK1) (Homo sapiens) (UniProt P39086)
# Test: Antagonist activity at human recombinant GluR5 expressed in HEK cells coexpressing aequorine assessed as inhibition of glutamate-induced Ca2+ influx by luminescence reporter assay
# Sequence of Glutamate receptor ionotropic, kainate 1 (GluK1/GRIK1) (Homo sapiens) (P39086 whole entry, looked up): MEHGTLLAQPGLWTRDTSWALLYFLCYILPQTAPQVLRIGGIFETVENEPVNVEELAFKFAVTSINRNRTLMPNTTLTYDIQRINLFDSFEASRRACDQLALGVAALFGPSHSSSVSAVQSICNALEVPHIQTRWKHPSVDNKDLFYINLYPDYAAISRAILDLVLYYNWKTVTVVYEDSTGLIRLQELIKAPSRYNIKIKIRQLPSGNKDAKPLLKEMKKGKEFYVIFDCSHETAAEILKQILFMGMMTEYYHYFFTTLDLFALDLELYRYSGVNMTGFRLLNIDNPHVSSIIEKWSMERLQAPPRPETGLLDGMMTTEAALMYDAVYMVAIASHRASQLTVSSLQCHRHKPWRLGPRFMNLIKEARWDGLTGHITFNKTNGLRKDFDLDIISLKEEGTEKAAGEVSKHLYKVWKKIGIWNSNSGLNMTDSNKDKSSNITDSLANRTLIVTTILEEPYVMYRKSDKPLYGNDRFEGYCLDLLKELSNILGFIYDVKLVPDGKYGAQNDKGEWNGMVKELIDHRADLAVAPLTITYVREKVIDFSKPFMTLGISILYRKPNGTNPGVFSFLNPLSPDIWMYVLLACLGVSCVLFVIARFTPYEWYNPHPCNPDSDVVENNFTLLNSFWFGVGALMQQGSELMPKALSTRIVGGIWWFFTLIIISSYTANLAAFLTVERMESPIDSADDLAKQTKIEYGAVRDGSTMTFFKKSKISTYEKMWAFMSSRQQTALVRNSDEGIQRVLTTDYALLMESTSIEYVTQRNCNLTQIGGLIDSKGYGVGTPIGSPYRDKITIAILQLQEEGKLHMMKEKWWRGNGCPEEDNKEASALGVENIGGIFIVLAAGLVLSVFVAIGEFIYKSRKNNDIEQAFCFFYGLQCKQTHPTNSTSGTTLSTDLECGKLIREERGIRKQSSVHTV
row,IC50,Structure (SMILES)
1,30 µM,COC(=O)c1c(N)sc(-c2ccccc2)c1C [Methyl 2-amino-4-methyl-5-phenylthiophene-3-carboxylate]

# Biological target: Glutamate receptor ionotropic, kainate 2 (GluK2/GRIK2) (Homo sapiens) (UniProt Q13002)
# Sequence (Q13002 whole entry, looked up): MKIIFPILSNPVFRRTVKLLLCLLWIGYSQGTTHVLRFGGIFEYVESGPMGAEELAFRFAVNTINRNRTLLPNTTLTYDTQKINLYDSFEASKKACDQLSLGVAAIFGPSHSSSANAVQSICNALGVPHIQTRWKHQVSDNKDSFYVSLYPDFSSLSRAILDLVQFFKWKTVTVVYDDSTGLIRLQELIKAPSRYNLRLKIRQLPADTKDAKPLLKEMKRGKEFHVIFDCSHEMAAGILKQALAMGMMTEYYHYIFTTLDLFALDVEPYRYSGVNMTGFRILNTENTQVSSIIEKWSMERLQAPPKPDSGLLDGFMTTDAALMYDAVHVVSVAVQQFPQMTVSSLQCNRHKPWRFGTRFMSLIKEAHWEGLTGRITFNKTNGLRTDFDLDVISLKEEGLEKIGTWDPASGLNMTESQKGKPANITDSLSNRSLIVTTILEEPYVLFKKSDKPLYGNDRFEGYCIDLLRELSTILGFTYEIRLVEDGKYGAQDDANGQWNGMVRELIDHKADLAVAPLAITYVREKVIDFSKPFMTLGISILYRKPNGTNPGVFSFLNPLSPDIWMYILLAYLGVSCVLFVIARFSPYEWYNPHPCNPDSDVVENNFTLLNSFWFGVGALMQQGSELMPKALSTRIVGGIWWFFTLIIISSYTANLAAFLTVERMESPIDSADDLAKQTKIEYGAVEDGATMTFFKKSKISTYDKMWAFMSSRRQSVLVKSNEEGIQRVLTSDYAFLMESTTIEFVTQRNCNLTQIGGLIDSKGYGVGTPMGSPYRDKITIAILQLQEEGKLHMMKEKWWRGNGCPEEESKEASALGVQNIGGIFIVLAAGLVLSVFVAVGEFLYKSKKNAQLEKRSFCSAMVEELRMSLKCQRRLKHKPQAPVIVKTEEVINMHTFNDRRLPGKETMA
# Test: Antagonist activity at human recombinant GluR6 expressed in HEK cells coexpressing aequorine assessed as inhibition of glutamate-induced Ca2+ influx at 10 uM by luminescence reporter assay
row,IC50,Structure (SMILES)
1,4 µM,C[C@H](C[C@H](N)C(=O)O)C(=O)O [2-Amino-4-methyl-pentanedioic acid]
2,4.5 µM,"CCOC(=O)c1c(N)sc(-c2ccccc2)c1-c1ccccc1 [Ethyl 2-amino-4,5-diphenylthiophene-3-carboxylate]"
3,2.4 µM,CCCOC(=O)c1c(N)sc(-c2ccccc2)c1C [Propyl 2-amino-4-methyl-5-phenylthiophene-3-carboxylate]
4,54 µM,CCOC(=O)c1c(N=NN2CCOCC2)sc(-c2ccccc2)c1C [Ethyl 4-methyl-2-(morpholinodiazenyl)-5-phenylthiophene-3-carboxylate]
5,0.75 µM,CCOC(=O)c1c(N)sc(-c2ccccc2)c1C [Ethyl 2-amino-4-methyl-5-phenylthiophene-3-carboxylate]
6,6.5 µM,Clc1ccc(CO[C@@H](Cn2ccnc2)c2ccc(Cl)cc2Cl)c(Cl)c1 [Brentan]
7,38 µM,"CCOC(=O)c1c(N=NN(C)C)sc(-c2ccccc2)c1C [Ethyl 2-(3,3-dimethyltriaz-1-enyl)-4-methyl-5-phenylthiophene-3-carboxylate]"
8,71 µM,Cc1c(-c2ccccc2)sc(N)c1C#N [2-Amino-4-methyl-5-phenylthiophene-3-carbonitrile]
9,3.6 µM,Cc1c(-c2ccccc2)sc(N)c1C(=O)OC(C)(C)C [Tert-Butyl 2-amino-4-methyl-5-phenylthiophene-3-carboxylate]
10,3.5 µM,CCOC(=O)c1c(N=C=S)sc(-c2ccccc2)c1C [2-isothiocyanato-4-methyl-5-phenylthiophene-3-carboxylate]
11,21 µM,CCOC(=O)c1c(N=NC#N)sc(-c2ccccc2)c1C [Ethyl 2-(cyanodiazenyl)-4-methyl-5-phenylthiophene-3-carboxylate]
12,12 µM,CCOC(=O)c1c(N)sc(-c2ccc(F)cc2)c1C [Ethyl 2-amino-5-(4-fluorophenyl)-4-methylthiophene-3-carboxylate]
13,5.7 µM,CCOC(=O)c1c(N)sc(-c2ccccc2Cl)c1C [Ethyl 2-amino-5-(2-chlorophenyl)-4-methylthiophene-3-carboxylate]
14,10 µM,CCOC(=O)c1c(Cl)sc(-c2ccccc2)c1C [Ethyl 2-chloro-4-methyl-5-phenylthiophene-3-carboxylate]
15,4.1 µM,COC(=O)c1c(N)sc(-c2ccccc2)c1C [Methyl 2-amino-4-methyl-5-phenylthiophene-3-carboxylate]
16,23 µM,"N#Cc1cc2c(cc1[N+](=O)[O-])=NC(=O)C(=O)N=2 [7-nitro-2,3-dioxo-2,3-dihydroquinoxaline-6-carbonitrile]"
17,10.6 µM,Cc1c(-c2ccccc2)sc(N)c1C(=O)c1ccccc1 [(2-Amino-4-methyl-5-phenylthiophen-3-yl)(phenyl)methanone]
18,8.6 µM,CCOC(=O)c1c(N)sc(-c2ccc(OC)cc2)c1C [Ethyl 2-amino-5-(4-methoxyphenyl)-4-methylthiophene-3-carboxylate]
